Measured values: article PMC9741287, “Cytotoxic and Luminescent Properties of Novel Organotin Complexes with Chelating Antioxidant Ligand” (Molecules, 2022)

Experiments:
[1] = system: formation of advanced glycation end products (AGEs); experiment: Antiglycation activity (BSA-glucose, AGE fluorescence); assay type: biochemical; details: for Antiglycation activity, M ± SEM: 24 h at 60 °C
Procedure: The glycation reaction was carried out in a phosphate buffer solution of 0.05 M, pH 7.4. Composition of the reaction medium: 0.36 M glucose solution and 1 mg/mL BSA (fraction V). The test compounds were dissolved in 99% DMSO (final concentration in the reaction medium ~3%). The activity of compound 1 was studied in the concentration range of 1000–0.1 μM, and the activity of aminoguanidine was determined at concentrations of 10,000–1000 μM. Control samples contained an equivalent volume of solvent. The samples were incubated for 24 h at 60 °C.
Data registration was carried out by the spectrofluorimetric method, determining AGE by specific fluorescence at excitation/emission wavelengths of 370/440 nm (spectrofluorimeter M 200 PRO, TECAN Austria GmbH, Grödig, Austria).
In order to exclude false positive results for compounds suppressing AGE fluorescence due to interference, the obtained data were logarithmically normalized according to Equation (4):Fly(log) = 10^(log10(Exp)−log10(Blank)) − 1(4) where Fly(log) is the normalized AGE fluorescence intensity, log10(Exp) and log10(blank) are the decimal logarithms of the actual fluorescence levels of glycated and corresponding non-glycated samples (both containing the test compound and controls).
The activity of other compounds (both non-fluorescent and fluorescent at the wavelengths used) was expressed by the Equation (5):Fly(lin) = Exp − Blank(5) where Fly(lin) is the fluorescence intensity of AGEs, Exp and blank are the actual fluorescence levels of glycated and corresponding non-glycated samples (both those containing the test compound and controls).
Determination of activity expressed as % suppression of fluorescence of AGE, was made according to the Equation (6):% = 100 − (Fly(Exp) × 100/Fly(Contr))(6) where Fly(Exp) and Fly(Contr) are the CPG fluorescence intensity of experimental and control samples, respectively (log-normalized or non-log-normalized).

[2] = system: WI-38 (human fetal lung fibroblast); experiment: MTT-test WI-38; assay type: cell-based
Procedure: (§1) Since the investigated compounds are designed as theranostic and cytostatic agents, their toxic impact was evaluated as a standard MTT-test. Cytotoxicity was studied on four cell lines, i.e.,—HCT116 (human colorectal carcinoma), MCF-7 (human breast cancer), A549 (human lung adenocarcinoma), and WI-38 (human fetal lung fibroblast). Obtained results appear to be unorthodox: as it is known, the introduction of an organotin moiety tends to noticeably increase compounds’ toxicity and more lipophilic ones do it better, but in the presented data pattern turns vice versa (Table 3).
(§2) HCT-116 (colon carcinoma), MCF-7 (breast adenocarcinoma), A-549 (lung adenocarcinoma) cell lines, and WI-38 (cell line composed of fibroblasts) were derived from The European Collection of Authenticated Cell Cultures (ECACC, Salisbury, UK), cultured in DMEM medium (Gibco™, Dublin, Ireland) supplemented with 10% fetal bovine serum (Gibco™, Brasilia, Brazil). The cells were cultured in an incubator at 37 °C in a humidified 5% CO2 atmosphere and subcultured two times a week.
(§3) The toxicity of compounds was studied on cultured cell lines according to standard MTT protocol.

[3] = system: A549 (human lung adenocarcinoma); experiment: MTT-test A549; assay type: cell-based
Procedure: as §1, §2, §3

[4] = system: HCT116 (human colorectal carcinoma); experiment: MTT-test HCT116; assay type: cell-based
Procedure: as §1, §2, §3

[5] = system: MCF-7 (human breast cancer); experiment: MTT-test MCF-7; assay type: cell-based
Procedure: as §1, §2, §3

What does the source list for `N=C(N)NN` [Aminoguanidine, reference compound]?
IC50 [1]: 5170 µM; Antiglycation activity, M ± SEM ([1]; concentration 1000 µM): 21.6 ± 1.8%; Antiglycation activity, M ± SEM ([1]; concentration 3000 µM): 39.5 ± 2.2%; Antiglycation activity, M ± SEM ([1]; concentration 10,000 µM): 62.0 ± 2.0%

How did the IC50 [2] turn out when `N.N.[Cl][Pt][Cl]` [Cisplatin, reference compound] was run?
Its IC50 is 16.3 ± 1.9 µM.

What about the IC50 [3] of the same compound?
The IC50 was 10.4 ± 1.5 µM.

And the IC50 [4]?
The IC50 was 8.3 ± 3.5 µM.

And the IC50 [5]?
The IC50 was 15.5 ± 3 µM.
